Assay results published in US20220081470A1, “THIAZOLYL PEPTIDES FOR THE TREATMENT NONTUBERCULOUS MYCOBACTERIAL INFECTIONS” (priority 2019, published 2022).
Values after ≈ are worked out from the molar mass of the structure shown. Like-named read-outs stand apart in the source and are kept apart here.

How the values were obtained:
[1] = test system: Mycobacterium intracellulare; assay: Minimum Bactericidal Concentration (MBC); assay type: cell-based; details: M.intracellulare
[2] = test system: Mycobacterium abscessus; assay: Minimum Bactericidal Concentration (MBC); assay type: cell-based; details: Mycobacteroides abscessus; M.abscessess
[3] = test system: M. gordonae; assay: In vitro drug combination study, checkerboard method; assay type: cell-based, Mycobacterium gordonae; details: for MIC: Mycobacterium gordonae, 144 h, drug alone, checkerboard, read-out: Individual MIC; for FIC index / Outcome: in combination with PM181108A
[4] = test system: M. abscessus in THP-1 macrophages; assay: Intracellular efficacy in THP-1 macrophages; assay type: cell-based, Mycobacterium abscessus; details: M.abscessess in THP-1 macrophages
Protocol: (§1) To test drug efficacy against slow or non-replicating bacilli in the intracellular compartment, THP-1 cells were grown in RPMI medium supplemented with […] sodium pyruvate, 200 mM L-glutamine, 3.7 g of sodium bicarbonate (Sigma) per litre, and 10% foetal calf serum (Gibco-BRL Life Technologies) without any antibiotics. The macrophages were seeded in 96-well plates at a density of approximately 5×10^5 cells/flask, incubated overnight, and were induced by 50 nM phorbol 12-myristate 13-acetate (PMA) to achieve macrophage differentiated phenotypesat 37° C./48-72 hr/5% CO2 atmosphere. After 48 hr of activation, the THP-1 macrophages were infected with respective NTM strains at a multiplicity of infection (MOI) of 1:10/2 h at 37° C. with 5% CO2. The macrophage monolayers were washed twice with […] of phosphate-buffered saline (+Ca^2++Mg^2+) to remove the free bacteria. Sets of triplicate wells were lysed (0.05% SDS) at specific timepoints, and enumerated to estimate the numbers of intracellular NTM 2 h post-infection.
(§2) The residual intracellular viable mycobacteria were enumerated at 0, 3, 5, and 7 day on Middlebrook 7H11 agar plates. […] Inhibitory sigmoidal curves were generated by plotting the log10 cfu/ml against the Cbroth/MIC ratio and the AUC/MIC ratio.

[5] = test system: M. kansasii in THP-1 macrophages; assay: Intracellular efficacy in THP-1 macrophages; assay type: cell-based, Mycobacterium kansasii
Protocol: as §1, §2

[6] = test system: Mycobacterium kansasii; assay: Minimum Bactericidal Concentration (MBC); assay type: cell-based; details: M.kansasii
[7] = test system: Mycobacterium gordonae; assay: MIC by broth dilution (CLSI M24), resazurin readout; assay type: cell-based; details: M.gordonae
[8] = test system: Mycobacterium fortuitum; assay: Minimum Bactericidal Concentration (MBC); assay type: cell-based; details: Mycolicibacterium fortuitum; M.fortuitum
[9] = test system: M. gordonae in THP-1 macrophages; assay: Intracellular efficacy in THP-1 macrophages; assay type: cell-based, Mycobacterium gordonae
Protocol: as §1, §2

[10] = test system: M. avium; assay: In vitro drug combination study, checkerboard method; assay type: cell-based, Mycobacterium avium; details: for MIC: Mycobacterium avium, 144 h, drug alone, checkerboard, read-out: Individual MIC; for FIC index / Outcome: in combination with PM181108A
[11] = test system: Mycobacterium avium; assay: Minimum Bactericidal Concentration (MBC); assay type: cell-based; details: M.avium
[12] = test system: Mycobacterium intracellulare; assay: MIC by broth dilution (CLSI M24), resazurin readout; assay type: cell-based; details: M.intracellulare
[13] = test system: M. avium in THP-1 macrophages; assay: Intracellular efficacy in THP-1 macrophages; assay type: cell-based, Mycobacterium avium
Protocol: as §1, §2

[14] = test system: M. fortuitum in THP-1 macrophages; assay: Intracellular efficacy in THP-1 macrophages; assay type: cell-based, Mycobacterium fortuitum
Protocol: as §1, §2

[15] = test system: Mycobacterium abscessus; assay: MIC by broth dilution (CLSI M24), resazurin readout; assay type: cell-based; details: Mycobacteroides abscessus; M.abscessess
[16] = test system: Mycobacterium nonchromogenicum; assay: Minimum Bactericidal Concentration (MBC); assay type: cell-based; details: Mycolicibacter nonchromogenicus
[17] = test system: Mycobacterium avium; assay: MIC by broth dilution (CLSI M24), resazurin readout; assay type: cell-based; details: M.avium
[18] = test system: Mycobacterium gordonae; assay: Minimum Bactericidal Concentration (MBC); assay type: cell-based; details: M.gordonae
[19] = test system: M. nonchromogenicum in THP-1 macrophages; assay: Intracellular efficacy in THP-1 macrophages; assay type: cell-based, Mycobacterium nonchromogenicum
Protocol: as §1, §2

[20] = test system: Mycobacterium kansasii; assay: MIC by broth dilution (CLSI M24), resazurin readout; assay type: cell-based; details: M.kansasii
[21] = test system: Mycobacterium nonchromogenicum; assay: as above; assay type: cell-based; details: Mycolicibacter nonchromogenicus
[22] = test system: Mycobacterium fortuitum; assay: as above; assay type: cell-based; details: Mycolicibacterium fortuitum; M.fortuitum
[23] = test system: M. intracellulare in THP-1 macrophages; assay: Intracellular efficacy in THP-1 macrophages; assay type: cell-based, Mycobacterium intracellulare
Protocol: as §1, §2

[24] = M.nonchromogenicum, read-out: MBC
[25] = M.nonchromogenicum, read-out: MIC

| Compound | MBC [1] [µg/mL] | MBC [2] [µg/mL] | MIC [3] [µg/mL] | Outcome [3] | IC Emax (intracellular efficacy) [4] [log10 cfu/ml] | MBC [6] [µg/mL] | MIC [7] [µg/mL] | MBC [8] [µg/mL] | IC Emax (intracellular efficacy) [9] [log10 cfu/ml] | MBC [11] [µg/mL] | MIC [12] [µg/mL] | IC Emax (intracellular efficacy) [13] [log10 cfu/ml] | IC Emax (intracellular efficacy) [14] [log10 cfu/ml] | MIC [15] [µg/mL] | MIC [17] [µg/mL] | MBC [18] [µg/mL] | IC Emax (intracellular efficacy) [19] [log10 cfu/ml] | MIC [20] [µg/mL] | MIC [22] [µg/mL] | IC Emax (intracellular efficacy) [23] [log10 cfu/ml] | further results |
| --- | --- | --- | --- | --- | --- | --- | --- | --- | --- | --- | --- | --- | --- | --- | --- | --- | --- | --- | --- | --- | --- |
| CC[C@H]1OC(=O)[C@H](C)[C@@H](O[C@H]2C[C@@](C)(OC)[C@@H](O)[C@H](C)O2)[C@H](C)[C@@H](O[C@@H]2O[C@H](C)C[C@H](N(C)C)[C@H]2O)[C@](C)(OC)C[C@@H](C)C(=O)[C@H](C)[C@@H](O)[C@]1(C)O [Clarithromycin] | 0.5 (≈ 0.668 µM) | 32 (≈ 42.8 µM) | 1 | Synergy (≤0.5, synergism) | 0.70 | 2 (≈ 2.67 µM) | 0.5 (≈ 0.668 µM) | > 32 | 1.26 | 2 (≈ 2.67 µM) | 0.13 (≈ 0.174 µM) | 1.00 | 0.35 | 2 (≈ 2.67 µM) | 0.5 (≈ 0.668 µM) | 1 (≈ 1.34 µM) | 0.82 | 0.5 (≈ 0.668 µM) | 32 (≈ 42.8 µM) | 1.78 | FIC index [3]: 0.46; IC Emax (intracellular efficacy) [5]: 0.91 log10 cfu/ml; MIC [10]: 1 µg/mL; FIC index [10]: 0.46; Outcome [10]: Synergy (≤0.5, synergism); MBC [16]: 4 µg/mL (≈ 5.35 µM); MIC [21]: 0.25 µg/mL (≈ 0.334 µM) |
| NCC[C@H](O)C(=O)N[C@@H]1C[C@H](N)[C@@H](O[C@H]2O[C@H](CN)[C@@H](O)[C@H](O)[C@H]2O)[C@H](O)[C@H]1O[C@H]1O[C@H](CO)[C@@H](O)[C@H](N)[C@H]1O [Amikacin] | 2 (≈ 3.42 µM) | 16 (≈ 27.3 µM) | 4 | Additive (>0.5-4.0, addition or indifference) |  | 16 (≈ 27.3 µM) | 2 (≈ 3.42 µM) | 2 (≈ 3.42 µM) |  | 8 (≈ 13.7 µM) | 1 (≈ 1.71 µM) |  |  | 4 (≈ 6.83 µM) | 2 (≈ 3.42 µM) | 8 (≈ 13.7 µM) |  | 4 (≈ 6.83 µM) | 2 (≈ 3.42 µM) |  | FIC index [3]: 0.90; MIC [10]: 4 µg/mL; FIC index [10]: 0.80; Outcome [10]: Additive (>0.5-4.0, addition or indifference); MBC [16]: 8 µg/mL (≈ 13.7 µM); MIC [21]: 2 µg/mL (≈ 3.42 µM) |
| COc1c(N2C[C@@H]3CCCN[C@@H]3C2)c(F)cc2c(=O)c(C(=O)O)cn(C3CC3)c12 [Moxifloxacin] | 1 (≈ 2.49 µM) | 4 (≈ 9.96 µM) |  |  | 1.00 | 8 (≈ 19.9 µM) | 2 (≈ 4.98 µM) | 0.25 (≈ 0.623 µM) | 1.23 | 8 (≈ 19.9 µM) | 0.5 (≈ 1.25 µM) | 1.00 | 1.60 | 2 (≈ 4.98 µM) | 4 (≈ 9.96 µM) | 4 (≈ 9.96 µM) | 0.34 | 2 (≈ 4.98 µM) | < 0.06 | 1.46 | IC Emax (intracellular efficacy) [5]: 1.93 log10 cfu/ml; MBC [16]: 16 µg/mL (≈ 39.9 µM); MIC [21]: 2 µg/mL (≈ 4.98 µM) |
| CO[C@H]1/C=C/O[C@@]2(C)Oc3c(C)c(O)c4c(O)c(c(/C=N/N5CCN(C)CC5)c(O)c4c3C2=O)NC(=O)/C(C)=C\C=C\[C@H](C)[C@H](O)[C@@H](C)[C@@H](O)[C@@H](C)[C@H](OC(C)=O)[C@@H]1C [Rifampicin] | 0.25 (≈ 0.304 µM) | 32 (≈ 38.9 µM) | 0.5 | Synergy (≤0.5, synergism) | 0.00 | 16 (≈ 19.4 µM) | 0.25 (≈ 0.304 µM) | > 32 | 1.36 | 1 (≈ 1.22 µM) | 0.06 (≈ 0.0729 µM) | 1.04 | 0.00 | 16 (≈ 19.4 µM) | 0.25 (≈ 0.304 µM) | 8 (≈ 9.72 µM) | 0.82 | 0.13 (≈ 0.158 µM) | 4 (≈ 4.86 µM) | 0.44 | MIC [10]: 0.5 µg/mL; Outcome [10]: Additive (>0.5-4.0, addition or indifference); MBC [16, 24]: 32 µg/mL (≈ 38.9 µM); MIC [21, 25]: 0.13 µg/mL (≈ 0.158 µM) |
| C=C(NC(=O)C(=C)NC(=O)c1csc(C2=N[C@@H]3c4csc(n4)[C@H]4NC(=O)c5csc(n5)[C@H]([C@](C)(O)[C@@H](C)O)NC(=O)[C@H]5CSC(=N5)/C(=C/C)NC(=O)[C@H]([C@@H](C)O)NC(=O)c5csc(n5)[C@]3(CC2)NC(=O)[C@H](C)NC(=O)C(=C)NC(=O)[C@H](C)NC(=O)[C@H]([C@@H](C)CC)N[C@@H]2C=Cc3c([C@H](C)O)cc(nc3[C@H]2O)C(=O)O[C@@H]4C)n1)C(N)=O [Thiostrepton] | 1 (≈ 0.601 µM) | 32 (≈ 19.2 µM) |  |  | 0.00 | 16 (≈ 9.61 µM) | 0.5 (≈ 0.3 µM) | > 32 | 0.72 | 2 (≈ 1.2 µM) | 0.13 (≈ 0.0781 µM) | 1.19 | 0.00 | 0.5 (≈ 0.3 µM) | 1 (≈ 0.601 µM) | 2 (≈ 1.2 µM) | 0.49 | 1 (≈ 0.601 µM) | 2 (≈ 1.2 µM) | 0.67 | IC Emax (intracellular efficacy) [5]: 1.56 log10 cfu/ml; MBC [16, 24]: 16 µg/mL (≈ 9.61 µM); MIC [21, 25]: 0.5 µg/mL (≈ 0.3 µM) |
